Results reported in US6867226B2, “Serotonin 5-HT3 receptor partial activator” (Meiji Seika Kaisha, Ltd., priority 1996, dated 2005).

Legend:
[1] = target: T1, serotonin 5-HT3 receptor (Cavia porcellus, UniProt O70212); experiment: Serotonin 5-HT3 receptor antagonism, inhibition of 5-HT-induced contraction of guinea pig ileum longitudinal muscle; assay type: cell-based; conditions: inhibition ratio of contraction by 10 μM serotonin 5-HT after treatment with test compound 10 μM; Hartley guinea pig ileum
T1 construct: Longitudinal muscle samples of about 20 mm were prepared from the ileum of Hartley male guinea pigs; from tissue; host or cells: guinea pig (Hartley, male) ileum longitudinal muscle
T1 sequence (O70212 20-490): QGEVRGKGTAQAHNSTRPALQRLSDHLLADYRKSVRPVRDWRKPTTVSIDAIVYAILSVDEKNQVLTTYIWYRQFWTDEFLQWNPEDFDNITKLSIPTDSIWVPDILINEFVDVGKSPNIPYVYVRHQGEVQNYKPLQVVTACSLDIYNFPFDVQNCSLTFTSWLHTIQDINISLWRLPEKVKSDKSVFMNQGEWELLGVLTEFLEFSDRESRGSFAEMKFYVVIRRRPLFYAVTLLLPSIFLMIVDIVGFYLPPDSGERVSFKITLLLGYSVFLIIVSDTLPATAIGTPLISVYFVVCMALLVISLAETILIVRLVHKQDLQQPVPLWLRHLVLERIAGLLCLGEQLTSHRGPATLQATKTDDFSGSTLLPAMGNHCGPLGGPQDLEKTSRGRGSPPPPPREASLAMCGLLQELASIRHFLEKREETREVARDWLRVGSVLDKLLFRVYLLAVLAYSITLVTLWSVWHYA
Experimental: (§1) Of the novel and known benzoxazole compounds according to the present invention, typical compounds and the compounds disclosed in JP-A-6-345744, namely 5-methoxy-2-(4-methyl-1-piperazinyl)benzoxazole (A) and 2-(4-methyl-1-piperazinyl)naphtho[2,3-d]oxazole (B), were measured for their serotonin 5-HT3 receptor antagonism and serotonin 5-HT3 receptor activating action by the following method, with the results shown in Table 1. Test compounds of the present invention are shown by the Inventive Example numbers.
(§2) Longitudinal muscle samples of about 20 mm were prepared from the ileum of Hartley male guinea pigs (500 to 800 g). Each of the thus prepared samples was hung down in a Magnus tube with a resting tension of about 0.5 g to measure the isometric contraction reaction. Serotonin 5-HT was applied with a concentration of from 0.1 to 30 μM to the sample which has been subjected twice in advance to 1 hour of treatment with 0.3 μM serotonin 5-HT to effect desensitization of serotonin 5-HT4 receptor.
The i.a. value was expressed as the ratio of the maximum reaction of each compound when the maximum contraction reaction obtained by 10 μM of serotonin 5-HT was defined as 1. The pD2 value was. expressed as the negative logarithmic value of concentration (molar concentration) by which 50% of the maximum contraction reaction of each test compound can be obtained. […]

[2] = target: T1, serotonin 5-HT3 receptor; experiment: 5-HT3 receptor activating action test, isometric contraction of guinea pig ileum longitudinal muscle; assay type: cell-based; conditions: for serotonin 5-HT3 receptor activating action (in words): guinea pig ileum contraction, summary of Table 1; for EC50: negative logarithm of molar concentration giving 50% of the compound's maximum contraction, read-out: Activation Action pD2 (converted); for EC50 / Activation Action i.a.: guinea pig ileum; for Activation Action i.a.: ratio of maximum reaction of compound to maximum contraction by 10 μM serotonin 5-HT defined as 1, 5-HT4 receptor desensitized
Experimental: 5-HT3 Receptor Activating Action Test
as §1, §2
The i.a. value was expressed as the ratio of the maximum reaction of each compound when the maximum contraction reaction obtained by 10 μM of serotonin 5-HT was defined as 1. The pD2 value was. expressed as the negative logarithmic value of concentration (molar concentration) by which 50% of the maximum contraction reaction of each test compound can be obtained. Also, antagonism of each test compound against the serotonin 5-HT3 receptor was calculated as the inhibition ratio of the contraction obtained by applying 10 μM of serotonin 5-HT (manufactured by Sigma) to a sample which has been treated with […] of each test sample to the contraction obtained by applying 10 μM of serotonin 5-HT to the sample before treatment.

[3] = system: mice; experiment: Toxicity test, oral administration to mice; assay type: in vivo; conditions: dose of 300 mg/kg, dissolved in water, five-week-old male mice (5 animals)

| EC50 [2] | Compound | inhibition at 10 µM [1] | serotonin 5-HT3 receptor activating action (in words) [2] | Activation Action i.a. [2] | mortality [3] |
| --- | --- | --- | --- | --- | --- |
| – | COc1ccc2oc(N3CCN(C)CC3)nc2c1 [A, 5-methoxy-2-(4-methyl-1-piperazinyl)benzoxazole, reference compound] | 34% | does not have serotonin 5-HT3 receptor activating action | – | – |
| 3.98 µM | CN1CCN(c2nc3cc4ccccc4cc3o2)CC1 [B, 2-(4-methyl-1-piperazinyl)naphtho[2,3-d]oxazole, reference compound] | 85% | weak in comparison with the compounds of the present invention | 0.45 | – |
| 0.224 µM | C=CC[N+]1(C)CCN(c2nc3cc(Cl)ccc3o2)CC1 [Example 2] | 90% | – | 0.57 | – |
| 0.316 µM | C=CC[N+]1(C)CCN(c2nc3cc(Cl)c(N)cc3o2)CC1.[Br-] [Example 7, 1-Allyl-1-methyl-4-(6-amino-5-chlorobenzoxazol-2-yl)piperazinium bromide] | 67% | – | 0.94 | – |
| – | c1ccc2oc(N3CCNCC3)nc2c1 [Example 14, 2-(1-Piperazinyl)benzoxazole] | 75% | – | – | – |
| 0.501 µM | CN1CCN(c2nc3c(ccc4ccccc43)o2)CC1 [Example 21, 2-(4-Methyl-1-piperazinyl)naphtho[1,2-d]oxazole] | 85% | – | 0.26 | – |
| 0.708 µM | C=CC[N+]1(C)CCN(c2nc3cc(C)ccc3o2)CC1.[Br-] [Example 25, 1-Allyl-1-methyl-4-(5-methylbenzoxazol-2-yl)piperazinium bromide] | 86% | – | 0.79 | – |
| – | C=CC[N+]1(C)CCN(c2nc3cccc(C)c3o2)CC1.[Br-] [Example 28, 1-Allyl-1-methyl-4-(7-methylbenzoxazol-2-yl)piperazinium bromide] | – | – | – | No mortal case |
| 0.0631 µM | Cc1cc(C)c2oc(N3CCCN(C)CC3)nc2c1 [Example 36, 5,7-Dimethyl-2-(4-methyl-1-homopiperazinyl)benzoxazole] | 96% | – | 0.28 | – |
| 0.02 µM | Cc1cc(Cl)cc2nc(N3CCCN(C)CC3)oc12 [Example 37, 5-Chloro-7-methyl-2-(4-methyl-1-homopiperazinyl)benzoxazole] | 98% | – | 0.15 | – |
| 0.0794 µM | CN1CCCN(c2nc3c(ccc4ccccc43)o2)CC1 [Example 40, 2-(4-Methyl-1-homopiperazinyl)naphtho[1,2-d]oxazole] | 89% | – | 0.21 | – |

| Compound | EC50 [2] | inhibition at 10 µM [1] | serotonin 5-HT3 receptor activating action (in words) [2] | Activation Action i.a. [2] | mortality [3] |
| --- | --- | --- | --- | --- | --- |
| CN1CCN(c2nc3cc(Cl)ccc3o2)CC1 [Example 1, 5-Chloro-2-(4-methyl-1-piperazinyl)benzoxazole] | 0.398 µM | 92% | – | 0.55 | – |
| CN1CCN(c2nc3cc(Cl)c(N)cc3o2)CC1 [Example 5, 6-Amino-5-chloro-2-(4-methyl-1-piperazinyl)benzoxazole] | 0.676 µM | 95% | – | 0.59 | – |
| Nc1cc2oc(N3CCNCC3)nc2cc1Cl [Example 10, 6-Amino-5-chloro-2-(1-piperazinyl)benzoxazole] | 0.676 µM | 88% | – | 0.69 | – |
| Cc1cc(C)c2oc(N3CCNCC3)nc2c1 [Example 13, 5,7-Dimethyl-2-(1-piperazinyl)benzoxazole] | 0.1 µM | 100% | – | 0.18 | No mortal case |
| Cc1ccc2oc(C3CCNCC3)nc2c1 [Example 16, 2-(4-Piperidyl)-5-methylbenzoxazole] | 0.617 µM | 82% | – | 0.24 | – |
| Cc1cc(Cl)cc2nc(N3CCN(C)CC3)oc12 [Example 31, 5-Chloro-7-methyl-2-(4-methyl-1-piperazinyl)benzoxazole] | 0.2 µM | 85% | – | 0.24 | – |
